Results taken from patent US20240174690A1, “ANNULATED 2-AMINO-3-CYANO THIOPHENES AND DERIVATIVES FOR THE TREATMENT OF CANCER” (BOEHRINGER INGELHEIM INTERNATIONAL GMBH, priority 2021, published 2024).

Legend:
[1] = tested on: KRAS G12V-dependent Ba/F3 cells; assay: Ba/F3 proliferation assay, KRAS G12V; assay type: cell-based; conditions: Mus musculus, BaF3, 72 h, AlamarBlue;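 note: proliferation IC50 in KRAS G12V-dependent Ba/F3 cells read by AlamarBlue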
Protocol: Plasmids containing KRASG12 mutants (i.e. […], G12C, G12V) are obtained from GeneScript. To generate KRASG12-dependent Ba/F3 models, Ba/F3 cells are transduced with retroviruses containing vectors that harbor KRASG12 isoforms. Platinum-E cells (Cell Biolabs) are used for retrovirus packaging. Retrovirus is added to Ba/F3 cells. To ensure infection, 4 μg/mL polybrene is added and cells are spinfected. […] Cells with an infection efficiency of 10% to 20% are further cultivated and puromycin selection with 1 μg/mL is initiated. As a control, parental Ba/F3 cells are used to show selection status. Selection is considered successful when parental Ba/F3 cells cultures died. To evaluate the transforming potential of KRASG12 mutations, the growth medium is no longer supplemented with IL-3. Ba/F3 cells harboring the empty vector are used as a control. Approximately ten days before conducting the experiments, puromycin is left out.
Compounds are added using an Access Labcyte Workstation with a Labcyte Echo 550 or 555 accoustic dispenser. All treatments are performed in technical duplicates. […] AlamarBlue™ (ThermoFisher), a viability stain, is added and fluorescence measured in the PerkinElmer Envision HTS Multilabel Reader. The raw data are imported into and analyzed with the Boehringer Ingelheim proprietary software MegaLab (curve fitting based on the program PRISM, GraphPad Inc.).

NCI-H2122 cells = assay: NCI-H2122 CTG proliferation assay (120 h) (NSCLC, G12C); assay type: cell-based; conditions: Homo sapiens
Protocol: NCI-H2122 CTG Proliferation Assay (120 h) (NSCLC, G12C)
The CTG assay is designed to measure quantitatively the proliferation of NCI-H2122 cells (ATCC CRL-5985), using the CellTiter Glow Assay Kit (Promega G7571). Cells are grown in RPMI medium (ATCC) supplemented with Fetal Calf Serum (Life Technologies, Gibco BRL, Cat. No. 10270-106). On “day 0” 200 NCI-H2122 cells are seeded in 60 μL RPMI ATCC+10% FCS+Penstrep in a black 384-well plate, flat and clear bottom (Greiner, PNr. 781091). Cells are then incubated in the plates at 37° C. in a CO2 incubator overnight. On day 1, compounds (10 mM stock in DMSO) are added with the ECHO acoustic liquid handler system (Beckman Coulter), including DMSO controls. Plates are incubated for 120 h, and cell viability is measured using CellTiter-Glo luminescent cell viability reagent (Promega product code G7570). Viability (stated as percent of control) is defined as relative luminescence units RLU of each well divided by the RLU of cells in DMSO controls. IC50 values are determined from viability measurements by non-linear regression using a four parameter model.

SK-CO-1 cells = assay: SK-CO-1 CTG proliferation assay (120 h) (CRC, G12V); assay type: cell-based; conditions: Homo sapiens; SK-CO-1 cells (CRC, G12V), CTG 120 h
Protocol: SK-CO-1 CTG Proliferation Assay (120 h) (CRC, G12V)
SK-CO-1 cells (ATCC HTB-39) are dispensed into 384-well plates, flat and clear bottom (Greiner, PNr. 781091) at a density of 500 cells per well in 60 μL EMEM (Sigma M5650)+10% Fetal Calf Serum (HyClone, PNr.: SH30084.03) and incubated at 37° C. in a CO2 incubator overnight. The next day, compounds (10 mM stock in DMSO) are added with the ECHO acoustic liquid handler system (Beckman Coulter), including DMSO controls. Plates are incubated for 120 h, and cell viability is measured using CellTiter-Glo luminescent cell viability reagent (Promega product code G7570). Viability (stated as percent of control) is defined as relative luminescence units RLU of each well divided by the RLU of cells in DMSO controls. IC50 values are determined from viability measurements by non-linear regression using a four-parameter model.

CYP3A4 = CYP3A4 (Homo sapiens (Human), UniProt P08684); assay: Mechanism based inhibition of CYP3A4 assay (MBI 3A4); assay type: in vitro ADME; conditions: hydroxy-midazolam formation after 30 min vs 0 min preincubation, 25 uM, human liver microsomes
CYP3A4, sequence (P08684 whole entry): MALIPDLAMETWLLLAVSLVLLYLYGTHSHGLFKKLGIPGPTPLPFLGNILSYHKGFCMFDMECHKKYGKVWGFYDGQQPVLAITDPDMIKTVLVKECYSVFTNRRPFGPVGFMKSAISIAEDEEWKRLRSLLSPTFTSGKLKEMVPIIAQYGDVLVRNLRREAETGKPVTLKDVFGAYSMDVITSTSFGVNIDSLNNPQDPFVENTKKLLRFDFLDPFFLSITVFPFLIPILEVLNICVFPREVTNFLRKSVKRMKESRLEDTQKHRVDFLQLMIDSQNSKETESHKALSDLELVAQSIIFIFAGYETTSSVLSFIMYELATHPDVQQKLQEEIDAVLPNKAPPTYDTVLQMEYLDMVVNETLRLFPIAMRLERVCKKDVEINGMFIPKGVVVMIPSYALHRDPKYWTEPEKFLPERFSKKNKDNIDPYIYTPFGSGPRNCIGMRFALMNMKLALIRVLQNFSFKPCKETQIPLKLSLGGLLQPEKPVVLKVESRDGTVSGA
Protocol: After preincubation, the incubate is diluted 1:10 and the substrate midazolam is added for the main incubation (15 min). The main incubation is quenched with acetonitrile and the formation of hydroxy-midazolam is quantified via LC/MS-MS. The formation of hydroxy-midazolam from the 30 min preincubation relative to the formation from the 0 min preincubation is used as a readout. Values of less than 100% mean that the substrate midazolam is metabolized to a lower extent upon 30 min preincubation compared to 0 min preincubation. In general low effects upon 30 min preincubation are desired (corresponding to values close to 100%/not different to the values determined with water control).

SMILES | IC50 [1] | IC50 (NCI-H2122 cells) | IC50 (SK-CO-1 cells) | MBI 3A4 (CYP3A4)
C[C@H](Oc1cc(N2CC[C@@H](O)C2)nc(-c2noc3c2CCC[C@@]32CCCc3sc(N)c(C#N)c32)n1)[C@@H]1CCCN1C [II-66] | 29 nM | 5010 nM | 76 nM | 71%
COCc1cn(-c2cc(O[C@@H](C)[C@@H]3CCCN3C)nc(-c3noc4c3CCC[C@@]43CCCc4sc(N)c(C#N)c43)n2)nn1 [II-121] | 11 nM | 580 nM | 57 nM | 56%
C[C@H](Oc1cc(-c2ccccn2)nc(-c2noc3c2CCC[C@@]32CCCc3sc(N)c(C#N)c32)n1)[C@@H]1CCCN1C [II-85] | 8 nM | 1120 nM | 51 nM | 52%
CO[C@@H]1C[C@@H]([C@H](C)Oc2cc(-c3ccn(C4COC4)n3)nc(-c3noc4c3CCC[C@@]43CCCc4sc(N)c(C#N)c43)n2)N(C)C1 [II-107] | 8 nM | 5720 nM | 181 nM | 58%
C[C@H](Oc1cc(N2C[C@H](C)NC3(CC3)C2)nc(-c2onc3c2CCC[C@@]32CCCc3sc(N)c(C#N)c32)n1)[C@@H]1CCCN1C [I-8] | 258 nM | 3040 nM | 532 nM | 25%
C[C@H](Oc1cc(-c2ccn(C[C@@H](C)O)n2)nc(-c2noc3c2CCC[C@@]32CCCc3sc(N)c(C#N)c32)n1)[C@@H]1CCCN1C [II-117] | 6 nM | 47 nM | 24 nM | 77%
C[C@H](Oc1cc(-c2cnn(C)n2)nc(-c2noc3c2CCC[C@@]32CCCc3sc(N)c(C#N)c32)n1)[C@@H]1CCCN1C [II-86] | 14 nM | 2080 nM | 121 nM | 68%
C[C@H](Oc1cc(N2CCC[C@@H](O)C2)nc(-c2noc3c2CCC[C@@]32CCCc3sc(N)c(C#N)c32)n1)[C@@H]1CCCN1C [II-59] | 31 nM | 1350 nM | 67 nM | 80%
C[C@H](Oc1cc(-c2cccc(CO)c2)nc(-c2noc3c2CCC[C@@]32CCCc3sc(N)c(C#N)c32)n1)[C@@H]1CCCN1C [II-97] | 26 nM | 2020 nM | 212 nM | 76%
C[C@H](Oc1cc(-n2cc(-c3cccnc3)nn2)nc(-c2noc3c2CCC[C@@]32CCCc3sc(N)c(C#N)c32)n1)[C@@H]1CCCN1C [II-123] | 24 nM | 878 nM | 96 nM | 64%
C[C@H](Oc1cc(-c2cn[nH]c2)nc(-c2noc3c2CCC[C@@]32CCCc3sc(N)c(C#N)c32)n1)[C@@H]1CCCN1C [II-87] | 25 nM | 1990 nM | 71 nM | 64%
C[C@H](Oc1cc([C@H]2CCOC2)nc(-c2noc3c2CCC[C@@]32CCCc3sc(N)c(C#N)c32)n1)[C@@H]1CCCN1C [II-88] | 6 nM | 434 nM | 47 nM | 77%
C[C@H](Oc1cc(-c2cncnc2)nc(-c2noc3c2CCC[C@@]32CCCc3sc(N)c(C#N)c32)n1)[C@@H]1CCCN1C [II-82] | 44 nM | 2680 nM | 170 nM | 73%
C[C@H](Oc1cc(-c2ccn(C)n2)nc(-c2noc3c2CCC[C@@]32CCCc3sc(N)c(C#N)c32)n1)[C@@H]1CCCN1C [II-96] | 5 nM | 307 nM | 67 nM | 85%
C[C@H](Oc1cc(-n2ccc(Br)n2)nc(-c2noc3c2CCC[C@@]32CCCc3sc(N)c(C#N)c32)n1)[C@@H]1CCCN1C [II-110] | 13 nM | 953 nM | 126 nM | 67%
C[C@H](Oc1cc(C2CCOCC2)nc(-c2noc3c2CCC[C@@]32CCCc3sc(N)c(C#N)c32)n1)[C@@H]1CCCN1C [II-76] | 19 nM | 1300 nM | 120 nM | 73%
C[C@H](Oc1cc(N2CCNC3(CC3)C2)nc(-c2onc3c2CCC[C@@]32CCCc3sc(N)c(C#N)c32)n1)[C@@H]1CCCN1C [I-5] | 253 nM | 2420 nM | 987 nM | 34%
C[C@H](Oc1cc(-n2ccnc2)nc(-c2noc3c2CCC[C@@]32CCCc3sc(N)c(C#N)c32)n1)[C@@H]1CCCN1C [II-69] | 7 nM | 515 nM | 115 nM | 94%
C[C@H](Oc1cc(N2CCC(C#N)C2)nc(-c2noc3c2CCC[C@@]32CCCc3sc(N)c(C#N)c32)n1)[C@@H]1CCCN1C (stereo partly drawn) [II-99] | 35 nM | 1160 nM | 159 nM | 78%
C[C@H](Oc1cc(-c2ccn(C3CC3)n2)nc(-c2noc3c2CCC[C@@]32CCCc3sc(N)c(C#N)c32)n1)[C@@H]1CCCN1C [II-98] | 14 nM | 1020 nM | 137 nM | 74%
CO[C@@H]1C[C@@H]([C@H](C)Oc2cc(-c3cnn(C)n3)nc(-c3noc4c3CCC[C@@]43CCCc4sc(N)c(C#N)c43)n2)N(C)C1 [II-62] | 17 nM | 4790 nM | 280 nM | 53%
C[C@H](Oc1cc(-c2ccn(C3COC3)n2)nc(-c2noc3c2CCC[C@@]32CCCc3sc(N)c(C#N)c32)n1)[C@@H]1CCCN1C [II-109] | 18 nM | 441 nM | 106 nM | 63%
CC(=O)N1CC=C(c2cc(O[C@@H](C)[C@@H]3CCCN3C)nc(-c3noc4c3CCC[C@@]43CCCc4sc(N)c(C#N)c43)n2)CC1 [II-81] | 13 nM | 1680 nM | 32 nM | 62%
C[C@H](Oc1cc(C2COCCO2)nc(-c2noc3c2CCC[C@@]32CCCc3sc(N)c(C#N)c32)n1)[C@@H]1CCCN1C (stereo partly drawn) [II-95] | 27 nM | 1420 nM | 341 nM | 68%
